Reference: patent US20250134855A1, “CO[…] AND METHODS OF USING SAME” (LYKOS THERAPEUTICS, INC., priority 2022, published 2025)

Columns and labels:
CHO-WBL cells = experiment: Chromosomal aberrations in CHO-WBL cells; type: cell-based; settings: with and without metabolic activation
[1] = tested on: participants with severe PTSD; experiment: MAPP1 Phase 3: Sheehan Disability Scale (SDS); type: in vivo, human
Text: FIG. 36 and FIG. 37 show the time course of improvement in Clinician Administered PTSD Scale for DSM-5 (CAPS-5) total severity score versus placebo. Each show a treatment difference between MDMA and placebo after 3 medication sessions with psychological intervention. […] Between the second and third treatment sessions, the difference between the groups appeared to continue to increase in both studies. The primary efficacy measure was change from baseline in the CAPS-5 total severity score at 18 weeks, which was evaluated 2 months after the final dosing session. The CAPS-5 is a 30-item, clinician-rated scale used to assess severity of PTSD symptoms and diagnostic status according to DSM-5 criteria, as described herein. Scores on the CAPS 5 range from 0 to 80, with higher scores indicating more severe PTSD symptoms. In both studies, a secondary efficacy measure was change from baseline in Sheehan Disability Scale (SDS) mean item scores at 18 weeks. The modified SDS is a 3-item, clinician-rated scale measuring the degree of functional impairment in work, family, and social life. Scores on the SDS mean items range from 0 to 10, with higher scores indicating more functional impairment. In these studies, the efficacy assessments were administered by blinded independent raters 18 to 30 days after medication sessions 1 and 2.
MAPP1 was a Phase 3 randomized, placebo-controlled, 2-arm, double-blind, multi-site study conducted to investigate the efficacy and safety of MDMA-AT in participants with severe PTSD. This study is also discussed in Mitchell et. al., Nature Medicine 2021, 27, 1025-1033. This study included 3 experimental sessions of therapy combined with either MDMA·HCl or placebo. During Experimental Session 1, participants received a split dose of 120 mg (80 mg+40 mg).
Participants received an escalated split dose of 180 mg during Experimental Sessions 2 and 3 unless there were tolerability issues or the participant declined. The primary outcome measure, the CAPS-5, evaluated changes in PTSD symptom severity and the secondary outcome measure, the SDS, evaluated changes in functional impairment. Both measures were assessed by a blinded centralized language-specific IR pool.
The de jure estimand of treatment efficacy was used to determine the effect of MDMA-AT on SDS total score.

[2] = tested on: participants with PTSD of moderate or greater severity; experiment: MAPP2 Phase 3: safety, adverse events; type: in vivo, human
Experimental: MAPP2 was a Phase 3 randomized, placebo-controlled, 2-arm, double-blind, multi-site study conducted to investigate the efficacy and safety of MDMA-AT in participants with PTSD of moderate or greater severity. This study included 3 experimental sessions of therapy combined with either MDMA or placebo. During Experimental Session 1, participants received a split dose of 120 mg (80 mg+40 mg). Participants received an escalated split dose of 180 mg during Experimental Sessions 2 and 3 unless there were tolerability issues or the participant declined.
Overall, 102 (98.1%) participants reported at least 1 TEAE during the study period (Table 52riod (Table 52riod (Table 52). Of these, 2 (3.9%) participants from the placebo group were discontinued due to TEAE (abdominal pain and suicidal ideation). There were no serious TEAEs or deaths reported during the study. Adverse events of special interest included a subset of AEs involving cardiac function, suicidality, and MDMA abuse. There were 6 (11.3%) participants in the MDMA group and 3 (5.9%) participants in the placebo group with an TEAE of special interest. AESIs related to suicidality were reported in 2 MDMA participants and 2 placebo participants. AESIs related to cardiac function were reported in 4 MDMA participants and 1 placebo participant (all palpitations). […] A listing of all TEAEs from MDMA-AT group with ≥5% incidence and twice the prevalence of placebo group is provided below in Table 44 Table 44 Table 44.

OATP1B3 = OATP1B3 (Homo sapiens, UniProt Q9NPD5); experiment: Transporter substrate assessment, OATP1B3
[3] = MAPP1, mITT, Baseline (Visit 3)
[4] = MAPP1, mITT, Baseline to Visit 19
[5] = MAPP1, mITT, Visit 19 (Primary Endpoint)
[6] = end of treatment, 42 patients (study not given)

Sequence of OATP1B3 (Q9NPD5 whole entry): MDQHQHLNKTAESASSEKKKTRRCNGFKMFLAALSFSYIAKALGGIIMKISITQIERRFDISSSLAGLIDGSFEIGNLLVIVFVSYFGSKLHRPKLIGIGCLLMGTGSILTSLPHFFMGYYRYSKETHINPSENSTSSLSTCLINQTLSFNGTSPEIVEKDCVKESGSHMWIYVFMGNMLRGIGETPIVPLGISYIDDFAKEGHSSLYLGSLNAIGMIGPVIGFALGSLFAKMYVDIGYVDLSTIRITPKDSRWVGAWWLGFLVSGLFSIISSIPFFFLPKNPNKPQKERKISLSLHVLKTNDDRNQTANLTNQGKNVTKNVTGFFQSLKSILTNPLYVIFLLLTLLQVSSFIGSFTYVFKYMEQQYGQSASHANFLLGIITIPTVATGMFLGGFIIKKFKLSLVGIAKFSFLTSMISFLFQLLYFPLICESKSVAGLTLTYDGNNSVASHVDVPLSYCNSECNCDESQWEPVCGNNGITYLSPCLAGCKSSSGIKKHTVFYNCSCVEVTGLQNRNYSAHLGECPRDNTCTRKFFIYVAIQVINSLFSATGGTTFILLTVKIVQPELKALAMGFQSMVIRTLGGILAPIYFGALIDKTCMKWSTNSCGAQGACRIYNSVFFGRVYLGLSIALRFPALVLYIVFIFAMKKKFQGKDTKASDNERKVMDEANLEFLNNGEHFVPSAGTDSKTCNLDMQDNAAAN

**Q.** With `CNC(C)Cc1ccc2c(c1)OCO2` (stereo not drawn) [MDMA, 3,4-methylenedioxymethamphetamine] as the compound, how does the chromosomal aberrations (CHO-WBL cells) read?
**A.** The chromosomal aberrations was “no signs of chromosomal aberrations”.

**Q.** And the “SDS Total Score CFB, LSMean” value ([1]; MAPP1, mITT, MMRM, Visit 19)?
**A.** The value was −3.15.

**Q.** And the “SDS Total Score CFB, LSMean for Treatment Difference” value ([1]; MAPP1, mITT, MMRM, vs placebo with therapy, Visit 19)?
**A.** Its value is −1.36.

**Q.** What about the “SDS Total Score, Mean” value [1, 3] of the same compound?
**A.** The value was 6.8.

**Q.** And the “SDS Total Score, Median” value [1, 3]?
**A.** Its value is 6.8.

**Q.** What about the “SDS Total Score CFB, Mean” value [1, 4] of the same compound?
**A.** The value was −3.1.

**Q.** What about the “SDS Total Score CFB, Median” value [1, 4] of the same compound?
**A.** Its value is −2.5.

**Q.** What about the “SDS Total Score, Mean” value ([1]; MAPP1, mITT, Visit 8) of the same compound?
**A.** The value was 5.0.

**Q.** And the “SDS Total Score, Median” value ([1]; MAPP1, mITT, Visit 8)?
**A.** The value was 5.0.

**Q.** What about the “SDS Total Score, Mean” value ([1]; MAPP1, mITT, Visit 13) of the same compound?
**A.** Its value is 4.1.

**Q.** What about the “SDS Total Score, Median” value ([1]; MAPP1, mITT, Visit 13) of the same compound?
**A.** Its value is 4.7.

**Q.** What about the “SDS Total Score, Mean” value [1, 5] of the same compound?
**A.** The value was 3.8.

**Q.** And the “SDS Total Score, Median” value [1, 5]?
**A.** Its value is 3.4.

**Q.** And the “reduction in SDS total scores” value ([1]; MAPP1, MMRM, de jure estimand)?
**A.** Its value is −3.15.

**Q.** And the “SDS Remission (SDS mean item score < 3)” value [1, 6]?
**A.** The value was “(42.9) %”.

**Q.** And the “SDS Remission (SDS mean item score < 3), n” value [1, 6]?
**A.** Its value is 18.

**Q.** What about the “SDS Responder (4 point or greater reduction from baseline SDS mean item score)” value [1, 6] of the same compound?
**A.** Its value is “(38.1) %”.

**Q.** What about the “SDS Responder (4 point or greater reduction from baseline SDS mean item score), n” value [1, 6] of the same compound?
**A.** The value was 16.

**Q.** And the “AESIs of MDMA abuse” value ([2]; MAPP2)?
**A.** Its value is “no AESIs of MDMA abuse”.

**Q.** What about the “TEAE Abdominal pain upper, %” value ([2]; MAPP2) of the same compound?
**A.** The value was “(9.4) %”.

**Q.** And the “TEAE Bruxism, %” value ([2]; MAPP2)?
**A.** The value was “(13.2) %”.

**Q.** What about the “TEAE Chest discomfort, %” value ([2]; MAPP2) of the same compound?
**A.** The value was “(17.0) %”.

**Q.** And the “TEAE Chills, %” value ([2]; MAPP2)?
**A.** The value was “(15.1) %”.

**Q.** And the “TEAE Decreased appetite, %” value ([2]; MAPP2)?
**A.** The value was “(35.8) %”.

**Q.** And the “TEAE Dissociation, %” value ([2]; MAPP2)?
**A.** The value was “(5.7) %”.

**Q.** And the “TEAE Dry mouth, %” value ([2]; MAPP2)?
**A.** Its value is “(17.0) %”.

**Q.** What about the “TEAE Feeling abnormal, %” value ([2]; MAPP2) of the same compound?
**A.** The value was “(9.4) %”.

**Q.** What about the “TEAE Feeling cold, %” value ([2]; MAPP2) of the same compound?
**A.** Its value is “(20.8) %”.

**Q.** What about the “TEAE Feeling hot, %” value ([2]; MAPP2) of the same compound?
**A.** Its value is “(26.4) %”.

**Q.** What about the “TEAE Feeling jittery, %” value ([2]; MAPP2) of the same compound?
**A.** The value was “(15.1) %”.

**Q.** And the “TEAE Feeling of body temperature change, %” value ([2]; MAPP2)?
**A.** Its value is “(9.4) %”.

**Q.** And the “TEAE Flushing, %” value ([2]; MAPP2)?
**A.** The value was “(5.7) %”.

**Q.** What about the “TEAE Gait disturbance, %” value ([2]; MAPP2) of the same compound?
**A.** Its value is “(5.7) %”.

**Q.** What about the “TEAE Heart rate increased, %” value ([2]; MAPP2) of the same compound?
**A.** Its value is “(5.7) %”.

**Q.** What about the “TEAE Hyperhidrosis, %” value ([2]; MAPP2) of the same compound?
**A.** Its value is “(34.0) %”.

**Q.** What about the “TEAE Hypoaesthesia, %” value ([2]; MAPP2) of the same compound?
**A.** The value was “(9.4) %”.

**Q.** And the “TEAE Muscle spasms, %” value ([2]; MAPP2)?
**A.** The value was “(7.5) %”.

**Q.** What about the “TEAE Muscle tightness, %” value ([2]; MAPP2) of the same compound?
**A.** Its value is “(58.8) %”.

**Q.** And the “TEAE Mydriasis, %” value ([2]; MAPP2)?
**A.** Its value is “(11.3) %”.

**Q.** And the “TEAE Nausea, %” value ([2]; MAPP2)?
**A.** The value was “(45.3) %”.

**Q.** And the “TEAE Nystagmus, %” value ([2]; MAPP2)?
**A.** The value was “(13.2) %”.

**Q.** And the “TEAE Palpitations, %” value ([2]; MAPP2)?
**A.** Its value is “(9.4) %”.

**Q.** What about the “TEAE Panic attack, %” value ([2]; MAPP2) of the same compound?
**A.** Its value is “(5.7) %”.

**Q.** And the “TEAE Paraesthesia, %” value ([2]; MAPP2)?
**A.** The value was “(18.9) %”.

**Q.** And the “TEAE Restlessness, %” value ([2]; MAPP2)?
**A.** The value was “(15.1) %”.

**Q.** What about the “TEAE Thirst, %” value ([2]; MAPP2) of the same compound?
**A.** The value was “(7.5) %”.

**Q.** What about the “TEAE Tremor, %” value ([2]; MAPP2) of the same compound?
**A.** Its value is “(11.3) %”.

**Q.** And the “TEAE Vision blurred, %” value ([2]; MAPP2)?
**A.** The value was “(15.1) %”.

**Q.** And the “TEAE Visual impairment, %” value ([2]; MAPP2)?
**A.** Its value is “(5.7) %”.

**Q.** What about the “participants with an TEAE of special interest” value ([2]; MAPP2) of the same compound?
**A.** Its value is 11.3%.

**Q.** What about the “At least one TEAE of Special Interest, %” value ([2]; MAPP2, Safety Set) of the same compound?
**A.** Its value is “(11.3) %”.

**Q.** And the “At least one Treatment-emergent SAE Leading to Death, %” value ([2]; MAPP2, Safety Set)?
**A.** Its value is “(0.0) %”.

**Q.** What about the “At least one Treatment-emergent SAE, %” value ([2]; MAPP2, Safety Set) of the same compound?
**A.** Its value is “(0.0) %”.

**Q.** What about the “Discontinued study treatment due to any TEAE(s), %” value ([2]; MAPP2, Safety Set) of the same compound?
**A.** The value was “(0.0) %”.

**Q.** And the “Participants with at least 1 TEAE during Experimental Sessions and 2 Days Following, %” value ([2]; MAPP2, Safety Set)?
**A.** Its value is “(100.0) %”.

**Q.** What about the “Subjects with at least 1 Severe TEAE, %” value ([2]; MAPP2, Safety Set) of the same compound?
**A.** The value was “(9.4) %”.

**Q.** And the “Subjects with at least 1 TEAE, %” value ([2]; MAPP2, Safety Set)?
**A.** Its value is “(100.0) %”.

**Q.** And the “heart rate and blood pressure during experimental sessions” value ([2]; MAPP2, dose-dependent, no clinical intervention required)?
**A.** The value was “transient increases”.

**Q.** What about the “participants with at least 1 temporally related TEAE” value ([2]; MAPP2, during an experiment session or up to 2 days following) of the same compound?
**A.** The value was “All participants”.

**Q.** And the “substrate of OATP1B3” value (OATP1B3)?
**A.** Its value is “not a substrate”.
